Results on twelve compounds are retold here after patent US12459951B2, “Compounds that interact with RAS superfamily proteins for treatment of cancers, inflammatory diseases, rasopathies, and fibrotic disease” (SHY Therapeutics, LLC, priority 2022, dated 2025).

Molecules are shown by their SMILES.

For one assay, the system named is Erk1/2 phosphorylation. Nature of the assay: Erk1/2 Phosphorylation Assay (western blot), Panc-1. The class given is cell-based, human. As to conditions: at 10 μM, * = activation. The essentials: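 Phospho-Erk1/2 (Thr202/Tyr204) was detected by western blot in lysates of Panc-1 cells (KRas G12D). These had 6 h, 37° C exposure to 10 μM compound or a dilution series for IC50, in 0.3% DMSO. Cells were either starved overnight in 0.5% FBS with a 15-min 1.5 ng/ml EGF pulse, or kept unstimulated in 10% FBS.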

A further assay has as its system TNF-alpha. Kind of assay: TNF-alpha Quantification Assay (ELISA), LPS-stimulated RAW 264.7. It is filed as cell-based. As to conditions: Mus musculus, RAW264.7; at 10 μM; read-out: TNFα: % inh. (In general: In an ELISA, binding on a coated surface is turned into a signal by an enzyme label.)
In the next assay the test system is Akt phosphorylation. Nature of the assay: Akt Phosphorylation Assay (western blot), Panc-1. As to conditions: at 10 μM, * = activation. It is filed as cell-based, human. A digest of the protocol:
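Phospho-Akt (Ser473) was measured by western blot in lysates of KRas G12D Panc-1 cells exposed to test compound for 6 h at 37 °C, either at 10 μM final with 0.3% DMSO or as serial dilutions for IC50. One format used overnight 0.5% FBS starvation followed by a 15 min pulse of 1.5 ng/ml EGF. The other used cells in 10% FBS with no stimulation.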
On the technique in general: A western blot detects proteins with antibodies after separation by electrophoresis.

In the case of `Cc1c(-c2ccn(C)n2)cn2nc(-c3nccn3C)nc(Nc3cc(-c4ccncc4)[nH]n3)c12` [Compound 266, 5-Methyl-2-(1-methyl-1H-imidazol-2-yl)-6-(1-methyl-1H-pyrazol-3-yl)-N-(5-(pyridin-4-yl)-1H-pyrazol-3-yl)pyrrolo[2,1-f][1,2,4]triazin-4-amine], the “% inh of Erk1/2 phosphorylation in Panc-1” value with Erk1/2 phosphorylation is on record as “D (85-100% inhibition)”. In addition, in the assay with TNF-alpha, the inhibition at 10 µM worked out at 0%. Besides, in the assay with Akt phosphorylation, the “% inh of Akt phosphorylation in Panc-1” value is on record as “D* (85-100% activation)”.
In the same order, the values of `Cc1c(-c2ccn(C(C)C)n2)cn2nc(-c3nccn3C)nc(Nc3cc(C4CC4)n[nH]3)c12` [Compound 68, N-(3-Cyclopropyl-1H-pyrazol-5-yl)-6-(1-isopropyl-1H-pyrazol-3-yl)-5-methyl-2-(1-methyl-1H-imidazol-2-yl)pyrrolo[2,1-f][1,2,4]triazin-4-amine] are “D* (85-100% activation)”, 25 to 49% and “D* (85-100% activation)”.
On to `Cc1c(-c2ccn(C(C)C)n2)cn2nc(-c3nccn3C)nc(Nc3ccn(C)n3)c12` [Compound 61, 6-(1-Isopropyl-1H-pyrazol-3-yl)-5-methyl-2-(1-methyl-1H-imidazol-2-yl)-N-(1-methyl-1H-pyrazol-3-yl)pyrrolo[2,1-f][1,2,4]triazin-4-amine], for which, in the assay with Erk1/2 phosphorylation, the “% inh of Erk1/2 phosphorylation in Panc-1” value is listed as “A* (1-25% activation)”. The inhibition at 10 µM in the assay with TNF-alpha lay within 1 to 24%. Besides, the “% inh of Akt phosphorylation in Panc-1” value with Akt phosphorylation is “C* (46-84% activation)”.
On to `COc1cccc(-c2cn3nc(-c4nccn4C)nc(N[C@H]4C[C@@H](OC)C4)c3c2-c2ccccc2)c1Cl` [Compound 31, 6-(2-Chloro-3-methoxyphenyl)-N-((1s,3s)-3-methoxycyclobutyl)-2-(1-methyl-1H-imidazol-2-yl)-5-phenylpyrrolo[2,1-f][1,2,4]triazin-4-amine], for which the “% inh of Erk1/2 phosphorylation in Panc-1” value in the assay on Erk1/2 phosphorylation is “D (85-100% inhibition)”. In the assay with TNF-alpha, the inhibition at 10 µM lay in the range of 75 to 100%. Moreover, the “% inh of Akt phosphorylation in Panc-1” value in the assay on Akt phosphorylation was “D (85-100% inhibition)”.
As to `COCCNc1nc(-c2nccn2C)nn2cc(-c3ccn(C(C)C)n3)c(C(C)C)c12` [Compound 35, 5-Isopropyl-6-(1-isopropyl-1H-pyrazol-3-yl)-N-(2-methoxyethyl)-2-(1-methyl-1H-imidazol-2-yl)pyrrolo[2,1-f][1,2,4]triazin-4-amine], in the assay with Erk1/2 phosphorylation, the “% inh of Erk1/2 phosphorylation in Panc-1” value is given as 0 (0% inhibition). Moreover, the inhibition at 10 µM in the assay with TNF-alpha was 0%. Moreover, the “% inh of Akt phosphorylation in Panc-1” value in the assay on Akt phosphorylation was 0 (0% inhibition).
As to `Cc1c(-c2ccn(C(C)C)n2)cn2nc(-c3nccn3C)nc(Nc3cc(C4CC4)no3)c12` [Compound 69, 3-Cyclopropyl-N-(6-(1-isopropyl-1H-pyrazol-3-yl)-5-methyl-2-(1-methyl-1H-imidazol-2-yl)pyrrolo[2,1-f][1,2,4]triazin-4-yl)isoxazol-5-amine], the “% inh of Erk1/2 phosphorylation in Panc-1” value with Erk1/2 phosphorylation is reported as “D* (85-100% activation)”. The inhibition at 10 µM in the assay on TNF-alpha was 1 to 24%. For the same compound, the “% inh of Akt phosphorylation in Panc-1” value in the assay with Akt phosphorylation is “D* (85-100% activation)”.
For `COc1ccnc(Nc2nc(-c3nccn3C)nn3cc(-c4ccn(C(C)C)n4)c(C)c23)n1` [Compound 53, 6-(1-Isopropyl-1H-pyrazol-3-yl)-N-(4-methoxypyrimidin-2-yl)-5-methyl-2-(1-methyl-1H-imidazol-2-yl)pyrrolo[2,1-f][1,2,4]triazin-4-amine], the “% inh of Erk1/2 phosphorylation in Panc-1” value with Erk1/2 phosphorylation is given as “D (85-100% inhibition)”. Also, the inhibition at 10 µM in the assay with TNF-alpha was in the range of 1 to 24%. Moreover, the “% inh of Akt phosphorylation in Panc-1” value with Akt phosphorylation is “A* (1-25% activation)”.
For `Cc1c(-c2ccn(C)n2)cn2nc(-c3nccn3C)nc(Nc3cc(C(F)(F)F)[nH]n3)c12` [Compound 259, 5-Methyl-2-(1-methyl-1H-imidazol-2-yl)-6-(1-methyl-1H-pyrazol-3-yl)-N-(5-(trifluoromethyl)-1H-pyrazol-3-yl)pyrrolo[2,1-f][1,2,4]triazin-4-amine], the “% inh of Erk1/2 phosphorylation in Panc-1” value in the assay with Erk1/2 phosphorylation was “A* (1-25% activation)”. The inhibition at 10 µM with TNF-alpha was determined as 0%. Besides, the “% inh of Akt phosphorylation in Panc-1” value in the assay on Akt phosphorylation was “D* (85-100% activation)”.
In the same order, the values of `COc1ccnc(Nc2nc(-c3nccn3C)nn3cc(-c4ccn(C)n4)c(C4CC4)c23)c1` [Compound 276, 5-Cyclopropyl-N-(4-methoxypyridin-2-yl)-2-(1-methyl-1H-imidazol-2-yl)-6-(1-methyl-1H-pyrazol-3-yl)pyrrolo[2,1-f][1,2,4]triazin-4-amine] are “D* (85-100% activation)”, 0% and “D* (85-100% activation)”.
The like results for `COc1cccc(-c2cn3nc(-c4nccn4C)nc(O)c3c2-c2ccccc2)c1Cl` [Compound 28, 6-(2-Chloro-3-methoxyphenyl)-2-(1-methyl-1H-imidazol-2-yl)-5-phenylpyrrolo[2,1-f][1,2,4]triazin-4-ol] were, in that order, 0 (0% inhibition), 1 to 24% and “A* (1-25% activation)”.
The like results for `Cc1c(-c2ccn(C)n2)cn2nc(-c3nccn3C)nc(Nc3cc[nH]n3)c12` [Compound 256, 5-Methyl-2-(1-methyl-1H-imidazol-2-yl)-6-(1-methyl-1H-pyrazol-3-yl)-N-(1H-pyrazol-3-yl)pyrrolo[2,1-f][1,2,4]triazin-4-amine] were, in that order, “C (50-84% inhibition)”, 0% and “D* (85-100% activation)”.
On to `COc1cccc(-c2cn3nc(-c4nccn4C)nc(N[C@@H]4CC[C@H](OC)C4)c3c2-c2ccccc2)c1Cl` (racemic) [Compound 33, rac 6-(2-Chloro-3-methoxyphenyl)-N-((1R,3S)-3-methoxycyclopentyl)-2-(1-methyl-1H-imidazol-2-yl)-5-phenylpyrrolo[2,1-f][1,2,4]triazin-4-amine], for which, in the assay with Erk1/2 phosphorylation, the “% inh of Erk1/2 phosphorylation in Panc-1” value was “D (85-100% inhibition)”. In addition, the inhibition at 10 µM in the assay on TNF-alpha is 75 to 100%. For the same compound, the “% inh of Akt phosphorylation in Panc-1” value in the assay with Akt phosphorylation was “D (85-100% inhibition)”.
